Experimental data published in patent publication US4572916A, “Tablets” (priority 1979, dated 1986).
≈ marks a conversion by molar mass, not a printed value. Entries after “also recorded” stand apart in the source; their conditions may differ. Blank lines part the entries; values can stand above or below the molecule they belong to.

Experiments:
[1] = Tablets made using a 1/4 inch flat face punch; format: physicochemical; details: Example 6, aspirin tablets; for Tablet making results: 1/4 inch flat face punch
Experimental: (a) The aspirin was mixed with the carrier under test, taking care to avoid moisture pick-up. The flavour was added to the starch with thorough mixing. The magnesium stearate was then added to the starch and this combination blended, with agitation, with the aspirin-carrier mix. (c) Tablets were made using a 1/4 inch flat face punch with the following results: […]

[2] = Flowability: flow of 100 g tablet mix through a 3/8 inch orifice funnel; format: physicochemical; details: for Time for 100 g of the tablet mix to flow through the 3/8 inch orifice funnel: no vibration, "No flow" = unable to flow completely without agitation
[3] = system: enzyme complex in the human intestine; details: literature clinical / in vitro studies (Holzen); cited from earlier work
[4] = Tablet formation, integrity and fines during tabletting and handling; format: physicochemical
Excerpt: 50 g isomaltulose, 4 g gum arabic, 1 g magnesium stearate and 13 g saccharin were dry mixed, giving a flowable tabletting powder. Tablets were formed by direct compression of the powder. […]

[5] = Tablets made using a 1/4 inch flat face punch; format: physicochemical; details: Example 7, ascorbic acid tablets, in words
[6] = Tablet weight; format: physicochemical; details: Example 6, aspirin tablets
Excerpt: (d) The tablet weights were:

[7] = Tablet hardness: % weight loss on vibration in a container for 1 hour; format: physicochemical
Experimental: (e) Tablet hardness was then assessed. For an objective test, the tablets were vibrated in a container for 1 hour.

[8] = Equilibrium relative humidity / water content of isomaltulose; format: physicochemical; details: 80% and 22° C.
[9] = Viscosity of isomaltulose solution in water; format: physicochemical; details: H2O
[10] = Sweetness and taste of isomaltulose
[11] = Solubility in water of isomaltulose; format: physicochemical
[12] = Acid hydrolysis of isomaltulose; format: physicochemical; details: 90 h at 58° C. in 2M HCl
[13] = system: Streptococcus mutans
[14] = Reducing power of isomaltulose relative to glucose; format: physicochemical

SMILES: OC[C@H]1OC(O)[C@H](O)[C@@H](O)[C@@H]1O (stereo partly shown) [Anhydrous dextrose, reference compound]
- Tablet making results [1]: As (iv)
- Time for 100 g of the tablet mix to flow through the 3/8 inch orifice funnel ([2]; Example 6, aspirin mix): No flow

SMILES: O=C[C@H](O)[C@@H](O)[C@H](O)[C@H](O)CO [Dextrose]
- Flowability, 100 g through 3/8" orifice, no agitation ([2]; Example 7, ascorbic acid mix): Agitation required

SMILES: OC[C@H]1O[C@H](OC[C@H]2OC(O)(CO)[C@@H](O)[C@@H]2O)[C@H](O)[C@@H](O)[C@@H]1O (stereo partly drawn) [Isomaltulose, 6-O-(αglucopyranosyl)-D-fructofuranose]
- fate of the constituent monosaccharides (fructose and glucose) [3]: adsorbed, metabolized and otherwise behave as fructose and glucose derived from sucrose
- hydrolysis by an enzyme complex in the human intestine [3]: readily hydrolyzed
- binding power when formed into tablets ([4]; in words): unusually good binding power
- fines during handling ([4]; tablets with isomaltulose as diluent versus comparable lactose tablets): often show less tendency to generate fines during handling
- tablet quality [5]: shiny, hard and had good appearance; also recorded: clearly superior to the dextrose, lactose and sucrose
- tablet weights [6]: 151 mg
- % weight loss on vibration (tablet hardness) ([7]; Example 6, aspirin tablets, vibrated 1 hour): 3.2%
- Weight loss on vibration for 1 hour ([7]; Example 7, ascorbic acid tablets): 1.8%
- tablet hardness ([7]; Example 7, ascorbic acid tablets, in words): not so well on tablet hardness; also recorded: not as hard as with the specially formulated carriers
- water content at 80% equilibrium relative humidity and 22 °C [8]: 25-32 % water
- viscosity at 25° C., 50% w/v, H2 O [9]: 6 cp
- taste ([10]; in words): pleasant, not very sweet, reasonably bland taste
- sweetness (relative to sucrose sweetness at 7% w/v in water) ([10]; relative to sucrose, 7% w/v in water): 0.37
- solubility in water compared with lactose ([11]; in words, versus lactose): better solubility in water than lactose
- solubility ([11]; water, 30° C., H2O, read-out: solubility at 30° C., H2 O): 460 mg/mL (≈ 1340 mM)
- degraded at 90 h [12]: 40%
- dental plaque formation [13]: little if any dental plaque is formed
- metabolism by Streptococcus mutans ([13]; preliminary studies): metabolized by Streptococcus mutans
- Tablet making results [1]: Tablets successfully made; also recorded: Released from die easily; also recorded: Good shiny appearance; also recorded: Good integrity
- tablet making, comparison of carriers ([1]; in words): comparable with the Dipac and Emdex, and superior to the other carriers
- flowability, comparison of carriers ([2]; Example 6, aspirin mix, in words): comparable with the specially prepared products Dipac and Emdex, and better than the lactose, icing sugar or anydrous dextrose
- Time for 100 g of the tablet mix to flow through the 3/8 inch orifice funnel ([2]; Example 6, aspirin mix): 38 s
- Flowability, 100 g through 3/8" orifice, no agitation ([2]; Example 7, ascorbic acid mix): 43 s
- flowability ([2]; Example 7, ascorbic acid mix, in words): performed well on flowability
- reducing power [14]: 58-62 % of that of glucose

The remaining lines, values ahead:

- tablet quality / tablet formation ([4]; Example 4(i), direct compression with gum arabic, saccharin tablets): not possible to produce coherent tablets
- tablet formation ([4]; Example 4(ii), direct compression without binder, saccharin tablets): Tablets could not be made
- Tablet making results [1]: Tablet machine prone to sticking
- Time for 100 g of the tablet mix to flow through the 3/8 inch orifice funnel ([2]; Example 6, aspirin mix): No flow
- Flowability, 100 g through 3/8" orifice, no agitation ([2]; Example 7, ascorbic acid mix): Agitation required
SMILES: OC[C@H]1O[C@@H](O[C@H]2[C@H](O)[C@@H](O)C(O)O[C@@H]2CO)[C@H](O)[C@@H](O)[C@H]1O (stereo partly shown) [Lactose, reference compound]

- Flowability, 100 g through 3/8" orifice, no agitation ([2]; Example 7, ascorbic acid mix): Agitation required
SMILES: OC[C@H]1O[C@@](CO)(O[C@H]2O[C@H](CO)[C@@H](O)[C@H](O)[C@H]2O)[C@@H](O)[C@@H]1O [Sucrose]
